Assay results: ChEMBL document CHEMBL3745606, “Dissection of N,N-diethyl-N'-phenylpiperazines as α7 nicotinic receptor silent agonists” (Bioorg Med Chem, 2016)
The source made the active and inactive calls. The rule behind the calls is not given here.

Key:
[1] = target: Neuronal acetylcholine receptor subunit alpha-7 (Homo sapiens) (UniProt P36544); assay: Partial agonist activity at human alpha7 nAChR expressed in xenopus oocytes assessed as potentiation of PNU-120596-induced PAM-sensitive desensitization at 30 uM by two-electrode voltage clamp electrophysiology relative to acetylcholine; assay type: cell-based
Sequence of Neuronal acetylcholine receptor subunit alpha-7 (Homo sapiens) (P36544 whole entry): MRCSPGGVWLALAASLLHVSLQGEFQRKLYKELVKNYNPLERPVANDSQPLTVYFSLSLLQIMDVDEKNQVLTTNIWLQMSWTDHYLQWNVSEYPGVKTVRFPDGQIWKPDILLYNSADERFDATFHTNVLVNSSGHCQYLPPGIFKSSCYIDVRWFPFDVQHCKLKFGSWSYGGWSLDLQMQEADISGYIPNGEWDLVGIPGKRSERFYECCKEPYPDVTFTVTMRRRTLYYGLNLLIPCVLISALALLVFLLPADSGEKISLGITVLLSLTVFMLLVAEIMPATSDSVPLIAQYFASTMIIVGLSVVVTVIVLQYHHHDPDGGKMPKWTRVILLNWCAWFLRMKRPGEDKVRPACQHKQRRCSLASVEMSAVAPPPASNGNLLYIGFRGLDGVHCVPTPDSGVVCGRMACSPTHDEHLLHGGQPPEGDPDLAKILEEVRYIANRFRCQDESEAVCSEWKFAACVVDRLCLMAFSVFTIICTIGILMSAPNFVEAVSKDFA

[2] = target: Neuronal acetylcholine receptor subunit alpha-7 (Homo sapiens) (UniProt P36544); assay: Partial agonist activity at human alpha7 nAChR expressed in xenopus oocytes assessed as induction of PAM-sensitive desensitization at 30 uM by two-electrode voltage clamp electrophysiology relative to acetylcholine; assay type: cell-based
[3] = target: Neuronal acetylcholine receptor subunit alpha-7 (Homo sapiens) (UniProt P36544); assay: Partial agonist activity at human alpha7 nAChR expressed in xenopus oocytes assessed as induction of PAM-sensitive desensitization by measuring ratio of peak current to net charge at 30 uM by two-electrode voltage clamp electrophysiology relative to acetylcholine; assay type: cell-based
[4] = target: T1, Neuronal acetylcholine receptor; alpha3/beta4 (Homo sapiens) (UniProt P30926+P32297); assay: Partial agonist activity at human alpha3beta4 nAChR expressed in xenopus oocytes assessed as induction of PAM-sensitive desensitization at 30 uM by two-electrode voltage clamp electrophysiology relative to acetylcholine; assay type: cell-based
[5] = target: Neuronal acetylcholine receptor subunit alpha-7 (Homo sapiens) (UniProt P36544); assay: Agonist activity at human alpha7 nAChR expressed in xenopus oocytes assessed as induction of PAM-sensitive desensitization at 30 uM by two-electrode voltage clamp electrophysiology relative to acetylcholine; assay type: cell-based
[6] = target: Neuronal acetylcholine receptor subunit alpha-7 (Homo sapiens) (UniProt P36544); assay: Agonist activity at human alpha7 nAChR expressed in xenopus oocytes assessed as potentiation of PNU-120596-induced PAM-sensitive desensitization at 30 uM by two-electrode voltage clamp electrophysiology relative to acetylcholine; assay type: cell-based
[7] = target: T1, Neuronal acetylcholine receptor; alpha3/beta4 (Homo sapiens); assay: Antagonist activity at human alpha3beta4 nAChR expressed in xenopus oocytes at 100 uM by two-electrode voltage clamp electrophysiology; assay type: cell-based
[8] = target: T2, Neuronal acetylcholine receptor; alpha4/beta2 (Homo sapiens) (UniProt P17787+P43681); assay: Partial agonist activity at alpha4beta2 nAChR (unknown origin) at 100 uM; assay type: protein-complex assay
[9] = target: T2, Neuronal acetylcholine receptor; alpha4/beta2 (Homo sapiens); assay: Antagonist activity at alpha4beta2 nAChR (unknown origin) at 100 uM; assay type: protein-complex assay

Compound | Activity [1] [%] | fold change (FC) [1] | fold change (FC) [2] | Ratio [3] | Activity [4] | fold change (FC) [5] | Activity [6] [%] | fold change (FC) [6] | Activity [7] | Activity [8] | Activity [9]
CC[N+]1(CC)CCN(c2ccccc2Cl)CC1 | < 10 | 36.6 | 0.367 | 0.63 |  |  |  |  |  |  | 
CC[N+]1(CC)CCN(c2ccccc2C)CC1 | < 10 | 16.4 | 0.319 | 0.46 |  |  |  |  |  |  | 
CC[N+]1(CC)CCN(c2ccc(C)cc2)CC1 |  |  |  |  | inactive | 0.011 | < 10 | 3.6 |  |  | 
CC[N+]1(CC)CCN(c2cccc(C#N)c2)CC1 |  |  |  |  | inactive | 0.022 | < 10 | 1.5 |  |  | 
CC[N+]1(CC)CCN(c2cccc(F)c2)CC1 |  |  |  |  | inactive | 0.061 | < 10 | 0.2 |  |  | 
CC[N+]1(CC)CCN(c2cccc(Cl)c2)CC1 |  |  |  |  | inactive | 0.02 | < 10 | 4.2 |  |  | 
CC[N+]1(CC)CCN(c2cccc(OC)c2)CC1 |  |  |  |  | inactive | 0.011 | < 10 | 0.6 | Active |  | 
CC[N+]1(CC)CCN(c2ccc3ccccc3c2)CC1 | < 10 | 15.9 | 0.143 | 0.71 |  |  |  |  |  |  | 
CC[N+]1(CC)CCN(c2ccccc2)CC1 |  |  |  |  |  | 0.002 | < 10 | 1.3 |  |  | 
CCN1CCN(c2cccc(Br)c2)CC1 |  |  |  |  | inactive | 0 | < 10 | 6.9 |  |  | 
CC[N+]1(CC)CCN(c2cccc(Br)c2)CC1 |  |  |  |  | inactive | 0.04 | < 10 | 10 |  | inactive | inactive
CC[N+]1(CC)CCN(c2cccc(O)c2)CC1 | < 10 | 31.4 | 0.283 | 0.67 |  |  |  |  |  |  | 
CC[N+]1(CC)CCN(c2ccc(C#N)cc2)CC1 | < 10 | 68 | 0.234 | 0.43 |  |  |  |  |  |  | 
CC[N+]1(CC)CCN(c2cccc(C(N)=O)c2)CC1 |  |  |  |  | inactive | 0.056 | < 10 | 50.7 |  |  | 
CC[N+]1(CC)CCN(c2ccc(C(N)=O)cc2)CC1 |  |  |  |  | inactive | 0.065 | < 10 | 43.9 |  |  | 
CC[N+]1(CC)CCN(c2ccc(C(F)(F)F)cc2)CC1 |  |  |  |  | inactive | 0.032 | < 10 | 61.8 |  | inactive | inactive
CC[N+]1(CC)CCN(c2ccc(F)cc2)CC1 |  |  |  |  | inactive | 0.01 | < 10 | 22.9 |  |  | 
CC[N+]1(CC)CCN(c2ccc(OC)cc2OC)CC1 |  |  |  |  |  | 0.014 | < 10 | 1.1 |  |  | 
CCN1CCN(c2ccc(F)cc2)CC1 |  |  |  |  | inactive | 0 | < 10 | 0 |  |  | 
CC[N+]1(CC)CCN(c2cccc(C(F)(F)F)c2)CC1 |  |  |  |  | inactive | 0 | < 10 | 3.1 |  |  | 
CCN1CCN(c2cccc(Cl)c2)CC1 |  |  |  |  | inactive | 0.009 | < 10 | 0.1 |  |  | 
CC[N+]1(CC)CCN(c2cccc(C)c2)CC1 |  |  |  |  | inactive | 0.001 | < 10 | 0.2 |  |  | 
CC[N+]1(CC)CCN(c2ccc(OC)cc2)CC1 |  |  |  |  | inactive | 0.063 | < 10 | 11.6 |  |  | 
CC[N+]1(CC)CCC(Nc2ccccc2)CC1 |  |  |  |  | inactive | 0.002 | < 10 | 5.6 |  |  | 
CC[N+]1(CC)CCN(c2ccc(Br)cc2)CC1 |  |  |  |  |  | 0.27 | < 10 | 12.3 |  |  | 
CC[N+]1(CC)CCC(=Cc2ccccc2)CC1 |  |  |  |  | inactive | 0.071 | < 10 | 9.9 |  |  | 
CC[N+]1(CC)CCN(c2ccc(Cl)cc2)CC1 | < 10 | 18.3 | 0.234 | 0.71 |  |  |  |  |  |  | 
CCN1CCN(c2ccc(C(F)(F)F)cc2)CC1 |  |  |  |  | inactive | 0 | < 10 | 1.4 |  |  | 
